Test results published in patent US20110166112A1, “METHOD FOR STIMULATING PLATELET PRODUCTION” (Eisai, Inc., priority 2009, published 2011).

Test system: subjects with chronic ITP who completed 28 days of study treatment
Assay: Phase 2 6-month rollover study of E5501: effectiveness (durable, transient, overall platelet response, maintenance, steroid use, upward dose titration)
Type: in vivo, human
Experimental: This study was a multicenter, parallel-group, rollover study of E5501 in subjects with chronic ITP who were enrolled in and completed 28 days' of study treatment. All subjects who completed the previous study and otherwise met the eligibility criteria for this rollover protocol were enrolled.
Subjects who rolled over from the previous study were treated for an additional 6 months after completing previous study.
Initial dose: Subjects who met the efficacy response in the previous study continued to receive their previous blinded dose at entry into this study.
Dose titration was performed in an open label fashion in 10 mg increments as follows: • Nonresponders, who received initial doses of open-label E5501 10 mg in the previous study, could have their dose increased in 10 mg increments every 14 days to a maximum of 40 mg/day in the absence of platelet response.
Subjects were also permitted to reduce their dose of ITP-directed concomitant therapy (e.g., steroids). The overall goal of any dose modification was to maintain the subject's peripheral platelet count above 50,000/mm^3 and to decrease the need for ITP-directed concomitant medications (if applicable). During any dose modification of study drug or ITP-directed concomitant medications, platelet counts were collected every week. After platelet counts stabilized, platelet count collection reverted to a biweekly schedule.
Assessments: Study subjects were evaluated for safety and efficacy (including platelet count) on day 1 and then biweekly while receiving treatment.
Two primary analysis populations were used to summarize safety and effectiveness: • Safety population: all subjects who received at least 1 dose of study drug and had at least 1 post-treatment safety assessment in either the previous or this study. All safety analyses were performed using this population. • Full Analysis Set (FAS): all subjects who participated in both studies and who had at least one post-treatment effectiveness assessment in this study. All efficacy analyses were performed using this population.
Secondary Endpoints: The secondary endpoints were markers of effectiveness, including: • 1. Changes in platelet count from baselines of the previous study and of this study by study visit; and • 2. Durable platelet response, defined as subjects who had at least 3 platelet count assessments in the last 14 weeks of the 24-week treatment period, and whose platelet count was at a response level for at least 75% of the time in the last 14 weeks during the 24-week treatment period, with no rescue medication used during the 24-week treatment period. Platelet response level was defined as ≧50,000/mm^3 for subjects whose baseline platelet count was <30,000/mm^3 in the previous study or an increase in baseline platelet count of ≧20,000/mm^3 for subjects receiving steroids whose baseline platelet count in the previous study was ≧30,000/mm^3 but <50,000/mm^3; • 3. Transient platelet response, defined as achievement of a response level for any 4 consecutive weeks during the 24-week treatment period without durable platelet response in the absence of any rescue medication; • 4. Overall platelet response (durable platelet response plus transient platelet response); • 5. Maintenance of platelet response, defined as subjects who were responders in the previous study (e.g., responders on day 28 of the previous study) who achieved a durable response in this study and had no upward dose titration of E5501 during this study; • 6. Permanent discontinuation of steroid use, defined as subjects who used steroid medication within the 2-week period before their first dose of study drug in this study, and for whom concomitant steroid medication was discontinued at least 8 weeks before the end of the treatment period; • 7. Reduction of steroid use by at least 50%. […]

[1] = FAS, Baseline PC >15K/mm^3, Responders, N assessed 19
[2] = FAS, Baseline PC ≦15K/mm^3, E5501 Total, N assessed 15
[3] = FAS, Baseline PC ≦15K/mm^3, Non-Responders, N assessed 9
[4] = FAS, Baseline PC ≦15K/mm^3, Responders, N assessed 6
[5] = FAS, History of Splenectomy, E5501 Total, N assessed 17
[6] = FAS, History of Splenectomy, Non-Responders, N assessed 10
[7] = FAS, History of Splenectomy, Responders, N assessed 7
[8] = FAS, No History of Splenectomy, E5501 Total, N assessed 36
[9] = FAS, No History of Splenectomy, Non-Responders, N assessed 18
[10] = FAS, No History of Splenectomy, Responders, N assessed 18
[11] = FAS, ≧3 Lines of Prior Therapy, E5501 Total, N assessed 35
[12] = FAS, ≧3 Lines of Prior Therapy, Non-Responders, N assessed 22
[13] = FAS, ≧3 Lines of Prior Therapy, Responders, N assessed 13
[14] = SE population, E5501 Total (N=36)
[15] = SE population, Non-Responders (N=15)
[16] = SE population, Responders (N=21)

Question: Which results are given for `O=C(Nc1nc(-c2cc(Cl)cs2)c(N2CCN(C3CCCCC3)CC2)s1)c1cnc(N2CCC(C(=O)O)CC2)c(Cl)c1` [E5501, 1-(3-chloro-5-{[4-(4-chlorothiophen-2-yl)-5-(4-cyclohexylpiperazin-1-yl)thiazol-2-yl]carbamoyl}pyridine-2-yl)piperidine-4-carboxylic acid]?
Answer: Durable Platelet Response, n (%) with response [1]: 15 (78.9) n (%); Overall Platelet Response, n (%) with response [1]: 18 (94.7) n (%); Durable Platelet Response, n (%) with response [2]: 4 (26.7) n (%); Overall Platelet Response, n (%) with response [2]: 7 (46.7) n (%); Durable Platelet Response, n (%) with response [3]: 1 (11.1) n (%); Overall Platelet Response, n (%) with response [3]: 3 (33.3) n (%); Durable Platelet Response, n (%) with response [4]: 3 (50.0) n (%); Overall Platelet Response, n (%) with response [4]: 4 (66.7) n (%); Durable Platelet Response, n (%) with response [5]: 5 (29.4) n (%); Overall Platelet Response, n (%) with response [5]: 10 (58.8) n (%); Durable Platelet Response, n (%) with response [6]: 1 (10.0) n (%); Overall Platelet Response, n (%) with response [6]: 5 (50.0) n (%); Durable Platelet Response, n (%) with response [7]: 4 (57.1) n (%); Overall Platelet Response, n (%) with response [7]: 5 (71.4) n (%); Durable Platelet Response, n (%) with response [8]: 23 (63.9) n (%); Overall Platelet Response, n (%) with response [8]: 30 (83.3) n (%); Durable Platelet Response, n (%) with response [9]: 9 (50.0) n (%); Overall Platelet Response, n (%) with response [9]: 13 (72.2) n (%); Durable Platelet Response, n (%) with response [10]: 14 (77.8) n (%); Overall Platelet Response, n (%) with response [10]: 17 (94.4) n (%); overall platelet response rate (FAS, all subjects): 75.5%; overall platelet response rate (FAS, nonresponders): 64.3%; overall platelet response rate (FAS, responders): 88.0%; Durable Platelet Response, n (%) with response [11]: 16 (45.7) n (%); Overall Platelet Response, n (%) with response [11]: 25 (71.4) n (%); Durable Platelet Response, n (%) with response [12]: 7 (31.8) n (%); Overall Platelet Response, n (%) with response [12]: 14 (63.6) n (%); Durable Platelet Response, n (%) with response [13]: 9 (69.2) n (%); Overall Platelet Response, n (%) with response [13]: 11 (84.6) n (%); overall platelet response rate (SE population): 94.4%; Durable Platelet Response No, % [14]: (25.0) %; Durable Platelet Response Yes, % [14]: (75.0) %; Transient Platelet Response No, % [14]: (80.6) %; Transient Platelet Response Yes, % [14]: (19.4) %; With Overall Response No, % [14]: (5.6) %; With Overall Response Yes, % [14]: (94.4) %; Durable Platelet Response No, % [15]: (40.0) %; Durable Platelet Response Yes, % [15]: (60.0) %; Transient Platelet Response No, % [15]: (73.3) %; Transient Platelet Response Yes, % [15]: (26.7) %; With Overall Response No, % [15]: (13.3) %; With Overall Response Yes, % [15]: (86.7) %; Durable Platelet Response No, % [16]: (14.3) %; Durable Platelet Response Yes, % [16]: (85.7) %; Transient Platelet Response No, % [16]: (85.7) %; Transient Platelet Response Yes, % [16]: (14.3) %; With Overall Response Yes, % [16]: (100.0) %; Durable platelet response rate (SE population, all subjects): 75%; Durable platelet response rate (SE population, non-responders): 60.0%; Durable platelet response rate (SE population, responders): 85.7%; subjects who needed an upward dose titration (all subjects (n=26/53)): 49%; subjects able to decrease their steroid dose by at least 50% (in vivo): Thirteen; improved overall response rate when subjects received a dose titration (non-responders in the previous study): 87.6%; overall response rate (non-responders on E5501 2.5 mg in previous study, open-label E5501 10 mg in current study): 70%; overall response rate (non-responders on E5501 5 mg in previous study, open-label E5501 10 mg in current study): 80%; overall response rate (non-responders on placebo in previous study, open-label E5501 10 mg in current study): 80%; subjects not responding to E5501 10 mg in the previous study who responded at 20 mg (of five subjects): Two; subjects who used concomitant steroids able to decrease their concomitant steroid use by at least 50% (regardless of responder status): 54.2%; subjects who used concomitant steroids able to permanently discontinue using steroids (regardless of responder status): 33.3%; overall response when subjects received a dose titration (responders in the previous study): 100%; overall response rate (responders receiving double-blind E5501 10 mg): 71.4%; platelet counts from baseline (FIG. 2 FAS, FIG. 3 SE population) (rollover study): markedly increased from baseline; durable platelet response estimate (sensitivity analysis based on 55 subjects, all subjects): 50.9%; durable platelet response estimate (sensitivity analysis, non-responders): 33.3%; durable platelet response estimate (sensitivity analysis, responders): 72%
